Source: paper PMC7174318, “The novel E. coli cell division protein, YtfB, plays a role in eukaryotic cell adhesion” (Scientific Reports, 2020)

These compounds were tested against T1, YtfB (his6-YtfB, C-terminal domain) (Escherichia coli, UniProt P39310) (assay: surface plasmon resonance, steady state affinity, YtfB immobilised by amine coupling on CM5). Conditions: PBS running buffer.
T1 construct: extracellular C-terminal region, residues 52-212 incl; LysM-like (OapA) domain; His6 tag kept; pETMCSIII-ytfB, expressed in E. coli BL21 AI
T1 sequence (P39310 52-212): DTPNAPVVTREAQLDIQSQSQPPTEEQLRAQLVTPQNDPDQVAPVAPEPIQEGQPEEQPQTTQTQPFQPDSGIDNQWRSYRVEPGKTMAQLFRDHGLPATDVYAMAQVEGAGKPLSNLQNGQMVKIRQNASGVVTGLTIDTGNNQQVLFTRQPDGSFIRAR
Type: binding
Compound `OC[C@H]1O[C@H](O[C@@H]2C(O)O[C@H](CO)[C@@H](O)[C@@H]2O)[C@@H](O)[C@@H](O)[C@@H]1O` (stereo partly drawn) [5C, α1–2mannobiose] has a Kd of 43.3 nM. With `CC(=O)N[C@H]1[C@H](O[C@H]2[C@H](O)[C@@H](NC(C)=O)[C@H](O[C@H]3[C@H](O)[C@@H](NC(C)=O)C(O)O[C@@H]3CO)O[C@@H]2CO)O[C@H](CO)[C@@H](O[C@@H]2O[C@H](CO)[C@@H](O[C@@H]3O[C@H](CO)[C@@H](O[C@@H]4O[C@H](CO)[C@@H](O)[C@H](O)[C@H]4NC(C)=O)[C@H](O)[C@H]3NC(C)=O)[C@H](O)[C@H]2NC(C)=O)[C@@H]1O` (stereo partly shown) [4D, hexaacetylchitohexaose] the Kd was 24.8 ± 5.3 nM. `CC(=O)N[C@H]1[C@H](O[C@H]2[C@H](O)[C@@H](NC(C)=O)C(O)O[C@@H]2CO)O[C@H](CO)[C@@H](O[C@@H]2O[C@H](CO)[C@@H](O[C@@H]3O[C@H](CO)[C@@H](O)[C@H](O)[C@H]3NC(C)=O)[C@H](O)[C@H]2NC(C)=O)[C@@H]1O` (stereo partly shown) [tetraose (N’acetylglucosamine)] was tested, and the Kd was 463 ± 71 nM. In the case of `OC[C@H]1O[C@H](O[C@H]2[C@H](O)[C@H](O)C(O)O[C@@H]2CO)[C@@H](O)[C@@H](O)[C@@H]1O` (stereo partly drawn) [5E, α1–4mannobiose], the Kd is reported as 31.2 nM. `OC[C@H]1O[C@H](O[C@H]2[C@H](O)[C@@H](CO)OC(O)[C@H]2O)[C@@H](O)[C@@H](O)[C@@H]1O` (stereo partly drawn) [5D, α1–3mannobiose] was tested, and the Kd was 345 nM. Compound `CC(=O)N[C@H]1[C@H](O[C@H]2[C@H](O)[C@@H](NC(C)=O)C(O)O[C@@H]2CO)O[C@H](CO)[C@@H](O[C@@H]2O[C@H](CO)[C@@H](O)[C@H](O)[C@H]2NC(C)=O)[C@@H]1O` (stereo partly shown) [4B, GlcNAcβ1-4GlcNAcβ1-4GlcNAc] has a Kd of 3300 ± 2130 nM.

Same assay, conditions: PBS running buffer; read-out: KD
For `OC[C@H]1O[C@H](OC[C@H]2OC(O)[C@@H](O)[C@@H](O)[C@@H]2O)[C@@H](O)[C@@H](O)[C@@H]1O` (stereo partly drawn) [5F, α1–6 mannobiose], the Kd was 112 nM.
